Measurements: patent US4448785A, “N-Unsaturated fatty acid amides of tryptophan ester homologues and anti-cholesteric use thereof” (Sandoz, Inc., priority 1982, dated 1984)
Values joined by “and” are separate entries in the source; they are usually repeats but may differ in a detail not shown here. Identical values can stand only once.

Experiments:
[1] = tested on: Fu5AH rat hepatoma cells; assay: Inhibition of cholesterol ester accumulation in Fu5AH cells; assay type: cell-based; set-up: Visual (in comparison to results with compound of Example 2a) / % Inhibition of cholesterol ester accumulation: unit of the concentration uncertain; settings: for inhibition at 10 µg/mL: Rattus norvegicus
From the text: For testing a 75 cm^2 flask with a near confluent cell growth is selected. The cells are removed from the flask surface by mild enzymatic treatment with pronase. After centrifugation and decanting the enzyme solution, the cell pellet is resuspended in an appropriate volume of media for seeding the desired number of 60 mm tissue culture dishes. Five (5) ml of the diluted cell suspension are pipetted into each dish. After seeding, the dishes are labelled with the cell type, date and flask number of origin and incubated at 37° C. in approximately 5% CO2 atmosphere in a high humidity incubator. When the cultures are confluent, the actual drug testing is begun. Test compounds are routinely solubilized in 100% ethanol. An equivalent amount of ethanol is added to control groups as well. The tissue culture dishes are randomly divided into groups. To one group, hyperlipemic rabbit serum (HRS) is added at 5% by volume (control). […] The dishes are returned to the incubator for an additional 24 hours. All operations through to the final incubation are performed using sterile technique in a laminar flow hood. After the incubation period, the dishes are microscopically observed with the Zeiss Axiomat with phase contrast optics and the conditions of the cultures are recorded; especially in regard to the size, number and configuration of cytoplasmic inclusions and to cellular morphology. The media is removed from the cultures and 0.9% sodium chloride solution is added. The cells are removed from the flasks with the aid of a rubber policeman and transferred to a conical graduated centrifuge tube. The cells are washed three times by suspending in an isotonic salt solution, centrifuging at 800× g for 10 minutes and aspirating the supernatant fluid.
(§1) An appropriate volume of isopropyl alcohol (about 1 ml/mg protein) is then added to the cell pellet and the sample sonicated with a micro probe (140×3 mm) for 10 seconds with a "LO" setting of 50 on a Bronwell Biosonik IV. After centrifugation for 15 minutes at 800× g, the clear supernatant is decanted and an aliquot taken for cholesterol analysis.
An aliquot of 0.4 ml of free reagent (Reagent A, Table 1 below) is added to a 10×75 mm disposable glass test tube to which 20 μl of the isopropyl alcoholic solution is added and mixed. After standing at room temperature for approximately 5 minutes, 0.8 ml of 0.5 N sodium hydroxide (Reagent C, Table 1) is added and mixed. The fluorescence is measured with an Aminco-Bowman spectrophotofluorometer with an excitation wavelength of 325 nm and emission wavelength of 415 nm. A 1 cm light path cuvette is used with a xenon lamp, an IP28 photomultiplier tube and 2 mm slits.
Total cholesterol: The same procedure described above for free cholesterol is followed for total cholesterol except that the total reagent (Reagent B, Table 1) is used instead of the free reagent and the samples are incubated for 20 minutes at 37° C. before the addition of the 0.5 N sodium hydroxide solution (Reagent C, Table 1).
The amount of cholesterol ester is found by subtracting the amount of free cholesterol from the total cholesterol content of the cells determined by the assay.

[2] = tested on: serum cholesterol and cholesterol ester levels; assay: Oral administration to rabbits with high cholesterol diet, serum cholesterol and arterial plaques; assay type: in vivo; settings: oral 200 mg/kg per day for 9 weeks, compared to controls
[3] = tested on: cholesterol absorption; assay: Zilversmit test, cholesterol absorption in the cholesterol fed rabbit; assay type: in vivo, Male New Zealand rabbits; settings: three days, n = 4
Method: The Zilversmit test is carried out as follows:
Cholesterol-1-2-^3 H and cholesterol-4-^14 C were obtained from New England Nuclear. They were purified by high pressure liquid chromatography (Beckman Model 332) using a reverse phase ultrasphere O.D.S. 25 cm×4.5 mm I.D. column with the following solvent system:
The flow rate was 1 ml/min. Detection was made at 206 nm using a Model 155-40 UV-Vis detector (Beckman). The radioactive cholesterol solution in benzene was evaporated to dryness, taken up in isopropyl alcohol and injected into the HPLC in five 20 μl aliguots. Cholesterol fractions were collected, pooled and evaporated to dryness. The purified fraction was rechromatographed under the same conditions to confirm purity.
The HPLC-purified cholesterol-1-2-^3 H was dissolved in corn oil (M.C.B.U.S.P.). The corn oil solution was added to 6.8% skim milk in a ratio of 1:4. This mixture was homogenized by sonicating with a Bronwell Biosonik IV sonicator using a microprobe at a "Lo" setting of 50 until a homogenous suspension was formed. […]
The radioactivity was determined by liquid scintillation counting in either a Packard 3320 Liquid Scintillation Spectrometer or a Beckman Model LS8000. […]
The combined efficiency of the oxidizer and liquid scintillation counter was determined for each isotope from standards of known specific activity. […]

[4] = tested on: monkey aortic smooth muscle cells; assay: Cell culture cholesterol ester test, monkey aortic smooth muscle cells (Table 2); assay type: cell-based, Rhesus monkey; settings: 5% HRS
From the text: The compounds of formula I of this invention are useful as pharmaceutical agents in animals. In particular, the compounds of the formula I are useful in controlling the cholesterol ester content of mammalian arterial walls and are therefore particularly indicated for use as anti-atherosclerotic agents, ie. agents useful in the prophylactic treatment of atherosclerosis and in the controlling of atherosclerotic conditions due to cholesterol ester accumulation in the arterial walls. Such ability of the compounds of the formula I is indicated e.g., by known test procedures in which the total cholesterol ester content of cultured cells is shown to be reduced by a test compound, as compared to untreated cells, and carried out, for example, by the following procedures:
Rhesus monkey smooth muscle cells (from the arterial, eg aorta wall) obtained by the method of K. Fisher-Dzoga et al (Experimental and Molecular Pathology 18, 162-176 (1973)) are routinely grown in 75 cm^2 tissue culture flasks using Minimum Essential Medium (Eagle) supplemented with 10% fetal bovine serum. For testing a 75 cm^2 flask with a near confluent cell growth is selected. The cells are removed from the flask surface by mild enzymatic treatment with pronase. After centrifugation and decanting the enzyme solution, the cell pellet is resuspended in an appropriate volume of media for seeding the desired number of 60 mm tissue culture dishes. Five (5) ml of the diluted cell suspension are pipetted into each dish. After seeding, the dishes are labelled with the cell type, date and flask number of origin and incubated at 37° C. in approximately 5% CO2 atmosphere in a high humidity incubator. When the cultures are confluent, the actual drug testing is begun. Test compounds are routinely solubilized in 100% ethanol. An equivalent amount of ethanol is added to control groups as well. The tissue culture dishes are randomly divided into groups. To one group, hyperlipemic rabbit serum (HRS) is added at 5% by volume (control). To the remaining groups, 5% HRS and 1 mg per 100 ml of media of the test compound are added. The dishes are returned to the incubator for an additional 24 hours. All operations through to the final incubation are performed using sterile technique in a laminar flow hood. After the incubation period, the dishes are microscopically observed with the Zeiss Axiomat with phase contrast optics and the conditions of the cultures are recorded; especially in regard to the size, number and configuration of cytoplasmic inclusions and to cellular morphology. The media is removed from the cultures and 0.9% sodium chloride solution is added. The cells are removed from the flasks with the aid of a rubber policeman and transferred to a conical graduated centrifuge tube. The cells are washed three times by suspending in an isotonic salt solution, centrifuging at 800× g for 10 minutes and aspirating the supernatant fluid.
as §1
The residue is dissolved in 0.1 N sodium hydroxide and an aliquot taken for protein determination by the method of Lowry, et al. (J. Biol. Chem. 193, 265; 1951). […]

[5] = 1 mg test compound per 100 ml of media, 24 hours, listed as A
[6] = Dose 10 (unit uncertain) as printed
[7] = Dose 10 as printed, Control = 0.17

SMILES: CCCCCCCC/C=C\CCCCCCCC(=O)NC(Cc1c[nH]c2ccccc12)C(=O)OCC (single isomer, unassigned) [Example 2a, α-[(1-oxo-9-octadecenylamino)]-1H-indole-3-propanoic acid, ethyl ester (cis isomer)]
- Cholesterol Free ([1]; 10 μg/ml, 5% HRS, Mean ± SEM, p < .01 vs Hyperlipemic Control 40.7 ± 0.6): 76.8 ± 6.5 μg/mg Cell Protein
- Cholesterol Ester ([1]; 10 μg/ml, 5% HRS, Mean ± SEM, p < .01 vs Hyperlipemic Control 152.5 ± 2.3): 40.6 ± 1.3 μg/mg Cell Protein
- Cholesterol Total ([1]; 10 μg/ml, 5% HRS, Mean ± SEM, p < .01 vs Hyperlipemic Control 193.0 ± 2.9): 117.4 ± 5.2 μg/mg Cell Protein
- % inh (cholesterol ester accumulation) ([1]; 10 μg/ml, Table 5): 73%
- inhibition of cholesterol accumulation by cells ([1]; Fu5AH cells): marked inhibition of cholesterol accumulation
- F/T ([1]; calculated from Table 5 (10 μg/ml), hyperlipemic control = 0.21): 0.65
- arterial wall plaques [2]: lessened formation or absence of arterial wall plaques
- cholesterol and cholesterol ester serum levels [2]: reduction in cholesterol and cholesterol ester serum levels
- Percent Cholesterol Absorption ([3]; 200 mg/kg by gavage, ± S.E.M., control 43.0 ± 2.03): 20.0 ± 1.43%
- Percent Cholesterol Absorption ([3]; 500 mg/kg by gavage, Mean ± S.E.M., control 41.0 ± 3.3): 11.2 ± 1.1%
- Cholesterol Free [4, 5]: 50.4 μg/mg cell protein and 54.4 μg/mg cell protein
- Cholesterol Total [4, 5]: 57.4 μg/mg cell protein and 60.3 μg/mg cell protein
- Cholesterol Ester Amount ([4]; 1 mg test compound per 100 ml of media, 24 hours, single culture, controls 23.1 and 21.4, listed as A): 7.0 μg/mg cell protein and 5.9 μg/mg cell protein
- Cholesterol Ester Percent from control ([4]; decrease, significant at P less than 0.01, 1 mg per 100 ml of media): 71.0%
- Cholesterol Ester mean ([4]; mean of two cultures, 1 mg per 100 ml of media, control mean 22.3): 6.5 μg/mg cell protein

SMILES: CCCCC/C=C\C/C=C\CCCCCCCC(=O)NC(Cc1c[nH]c2ccccc12)C(=O)OCC (stereo not drawn) [Example 1, α-[(1-Oxo-9,12-oxtadecadienylamino)]1H-Indole-3-Propanoic acid, Ethyl Ester(cis, cis isomer)]
- Visual (in comparison to results with compound of Example 2a) [1, 6]: About same
- % Inhibition of cholesterol ester accumulation ([1]; Dose 10 (unit uncertain) as printed, Table 6): 59%
- inhibition at 10 µg/mL ([1]; Table 6): 69%

SMILES: CCCCCCCC/C=C\CCCCCCCC(=O)NC(Cc1cn(C)c2ccccc12)C(=O)OCC (centres unmarked) [Example 3a, 2-(1-oxo-9-octadecenylamino)-3-(1-methylindolyl)-propanoic acid, ethyl ester]
- F/T [1, 7]: 0.52

SMILES: CCCCCCCC/C=C\CCCCCCCC(=O)NC(Cc1c[nH]c2ccc(OC)cc12)C(=O)OCC (centres unmarked) [Example 3b, 2-(1-oxo-9-octadecenylamino)-3-(1H-5-methoxyindolyl)-propanoic acid, ethyl ester]
- Visual (in comparison to results with compound of Example 2a) [1, 6]: About same
- F/T [1, 7]: 0.45

SMILES: CCCCCCCC/C=C\CCCCCCCC(=O)NC(Cc1c[nH]c2ccc(F)cc12)C(=O)OCC (centres unmarked) [Example 3e, 2-(1-oxo-9-octadecenylamino)-3-(1H-5 fluoroindolyl)-propanoic acid, ethyl ester]
- Visual (in comparison to results with compound of Example 2a) [1, 6]: About same
- inhibition at 10 µg/mL ([1]; Table 6): 39%

SMILES: CCCCC/C=C\C/C=C\CCCCCCCC(=O)NC(Cc1c[nH]c2ccccc12)C(=O)OCCCCCCCC (centres unmarked) [Example 4c]
- Visual (in comparison to results with compound of Example 2a) ([1]; Dose 5 (unit uncertain) as printed): Weaker
- F/T ([1]; Dose 5 as printed, Control = 0.19): 0.22

SMILES: CCCCC/C=C\C/C=C\CCCCCCCC(=O)NC(Cc1c[nH]c2ccccc12)C(=O)OCc1ccccc1 (centres unmarked) [Example 4d]
- Visual (in comparison to results with compound of Example 2a) [1, 6]: About same
